Data: patent US7348425B2, “Inhibitors of HCV replication” (Bristol-Myers Squibb Company, priority 2004, dated 2008)

Tests used:
HCV replicon = HCV replicon luciferase assay; format: cell-based, Hepatitis C virus; conditions: Hepatitis C virus, luciferase method; read-out: EC50
Experimental: To prepare plates, HCV replicon cells, with or without a Renilla luciferase reporter gene, were trypsinized and placed into each well of a 96-well plate with titrated test compounds added in columns 3 through 12; columns 1 and 2 contained a control compound (HCV protease inhibitor), and the bottom row contained cells without compound. The plates were then placed in a CO2 incubator at 37 degrees C.
Assays. Subsequent to addition of the test compounds described above (FRET Assay Preparation), at various times the plate was removed and Alamar blue solution (Trek Diagnostics, #00-100) was added per well as a measure of cellular toxicity. After reading in a Cytoflour 4000 instrument (PE Biosystems), plates were rinsed with PBS and then used for FRET assay by the addition of 30 ul of the FRET peptide assay reagent described above (FRET Assay Preparation) per well. The plate was then placed into the Cytoflour 4000 instrument which had been set to 340 excite/490 emission, automatic mode for 20 cycles and the plate read in a kinetic mode. Typically, the signal to noise using an endpoint analysis after the reads was at least three-fold. Alternatively, after Alamar blue reading, plates were rinsed with PBS, 50 ul of DMEM (high glucose) without phenol red was added and plates were then used for luciferase assay using the Promega Dual-Glo Luciferase Assay System.
Compound analysis was determined by quantification of the relative HCV replicon inhibition and the relative cytotoxicity values. To calculate cytoxicity values, the average Alamar Blue fluorescence signals from the control wells were set as 100% non-toxic. The individual signals in each of the compound test wells were then divided by the average control signal and multiplied by 100% to determine […]. To calculate the HCV replicon inhibition values, an average background value was obtained from the two wells containing the highest amount of HCV protease inhibitor at the end of the assay period. These numbers were similar to those obtained from naïve Huh-7 cells.
The background numbers were then subtracted from the average signal obtained from the control wells and this number was used as 100% activity. The individual signals in each of the compound test wells were then divided by the averaged control values after background subtraction and multiplied by 100% to determine percent activity. EC50 values for a protease inhibitor titration were calculated as the concentration which caused a 50% reduction in FRET or luciferase activity. The two numbers generated for the compound plate, percent cytoxicity and percent activity were used to determine compounds of interest for further analysis.

[1] = target: T1, HCV NS5B RdRp genotype 1b (Hepatitis C virus genotype 1b, UniProt Q9WMX2); experiment: Standard HCV NS5B RdRp enzyme assay; format: biochemical; conditions: standard method
T1 construct: The protein was expressed with an 18 amino acid C-terminal truncation to enhance the solubility; made in house; host or cells: E. coli BL21 (DE3), pET21a
T1 sequence (Q9WMX2 2420-2992): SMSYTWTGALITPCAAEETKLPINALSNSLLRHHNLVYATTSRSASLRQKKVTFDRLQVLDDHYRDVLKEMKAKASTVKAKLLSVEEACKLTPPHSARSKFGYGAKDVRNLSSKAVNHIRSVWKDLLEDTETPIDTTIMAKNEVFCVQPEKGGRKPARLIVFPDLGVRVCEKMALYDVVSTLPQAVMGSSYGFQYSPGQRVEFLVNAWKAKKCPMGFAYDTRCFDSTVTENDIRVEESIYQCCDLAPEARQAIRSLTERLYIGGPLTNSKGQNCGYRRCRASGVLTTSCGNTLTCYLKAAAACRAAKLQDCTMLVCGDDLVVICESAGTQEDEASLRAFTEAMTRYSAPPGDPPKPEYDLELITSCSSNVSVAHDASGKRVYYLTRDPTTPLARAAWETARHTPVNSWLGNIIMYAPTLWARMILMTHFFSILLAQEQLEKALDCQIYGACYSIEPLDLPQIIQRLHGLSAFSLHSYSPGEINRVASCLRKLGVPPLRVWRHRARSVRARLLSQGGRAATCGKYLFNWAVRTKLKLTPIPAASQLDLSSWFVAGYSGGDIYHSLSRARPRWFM
Experimental: HCVNS5B RdRp cloning, expression, and purification. The cDNA encoding the NS5B protein of HCV, genotype 1b, was cloned into the pET21a expression vector. The protein was expressed with an 18 amino acid C-terminal truncation to enhance the solubility. The E. coli competent cell line BL21 (DE3) was used for expression of the protein. Cultures were grown at 37° C. for ˜4 hours until the cultures reached an optical density of 2.0 at 600 nm. The cultures were cooled to 20° C. and induced with 1 mM IPTG. Fresh ampicillin was added to a final concentration of 50 μg/ml and the cells were grown overnight at 20° C.
Cell pellets (3 L) were lysed for purification to yield 15-24 mgs of purified NS5B. The lysis buffer consisted of 20 mM Tris-HCl, pH 7.4, 500 mM NaCl, 0.5% triton X-100, 1 mM DTT, 1 mM EDTA, 20% glycerol, 0.5 mg/ml lysozyme, 10 mM MgCl2, 15 ug/ml deoxyribonuclease I, and Complete TM protease inhibitor tablets (Roche). After addition of the lysis buffer, frozen cell pellets were resuspended using a tissue homogenizer. To reduce the viscosity of the sample, aliquots of the lysate were sonicated on ice using a microtip attached to a Branson sonicator. The sonicated lysate was centrifuged at 100,000×g for 1 hr at 4° C. and filtered through a 0.2 μm filter unit (Corning).
The protein was purified using three sequential chromatography steps: Heparin sepharose CL-6B, polyU sepharose 4B, and Hitrap SP sepharose (Pharmacia). The chromatography buffers were identical to the lysis buffer but contained no lysozyme, deoxyribonuclease I, MgCl2 or protease inhibitor and the NaCl concentration of the buffer was adjusted according to the requirements for charging the protein onto the column. Each column was eluted with a NaCl gradient which varied in length from 5-50 column volumes depending on the column type. After the final chromatography step, the resulting purity of the enzyme is >90% based on SDS-PAGE analysis. The enzyme was aliquoted and stored at −80° C.
Standard HCV NS5B RdRp enzyme assay. HCV RdRp genotype Ib assays were run in a final volume of 60 μl in 96 well plates (Costar 3912). The assay buffer is composed of 20 mM Hepes, pH 7.5, 2.5 mM KCl, 2.5 mM MgCl2, 1 mM DTT, 1.6 U RNAse inhibitor (Promega N2515), 0.1 mg/ml BSA (Promega R3961), and 2% glycerol. All compounds were serially diluted (3-fold) in DMSO and diluted further in water such that the final concentration of DMSO in the assay was 2%. HCV RdRp genotype 1b enzyme was used at a final concentration of 28 nM. A polyA template was used at 6 nM, and a biotinylated oligo-dT12 primer was used at 180 nM final concentration. Template was obtained commercially (Amersham 27-4110). Biotinylated primer was prepared by Sigma Genosys. ^3H-UTP was used at 0.6 μCi (0.29 μM total UTP). Reactions were initiated by the addition of enzyme, incubated at 30° C. for 60 min, and stopped by adding 25 μl of 50 mM EDTA containing SPA beads (4 μg/μl, Amersham RPNQ 0007). Plates were read on a Packard Top Count NXT after >1 hr incubation at room temperature.
The IC50 values for compounds were determined using seven different [I]. IC50 values were calculated from the inhibition using the formula y=A+((B−A)/(1+((C/x)^D))). FRET Assay Preparation. To perform the HCV FRET screening assay, 96-well cell culture plates were used. The FRET peptide (Anaspec, Inc.) (Taliani et al., Anal. Biochem. 240:60-67 (1996), hereby incorporated by reference in its entirety) contains a fluorescence donor, EDANS, near one end of the peptide and an acceptor, DABCYL, near the other end. The fluorescence of the peptide is quenched by […] resonance energy transfer (RET) between the donor and the acceptor, but as the NS3 protease cleaves the peptide the products are released from RET quenching and the fluorescence of the donor becomes apparent. […]

Compound: O=C(O)c1ccc2c(C3CCCCC3)c3n(c2c1)CC=Cc1ncccc1-3
- EC50 (HCV replicon): 1000 to 10000 nM
- IC50 [1]: > 1000 nM

Compound: O=C(O)c1ccc2c(C3CCCCC3)c3n(c2c1)CCCc1ncccc1-3
- EC50 (HCV replicon): 100 to 1000 nM
- IC50 [1]: 100 to 1000 nM

Compound: CN(C)C(=O)C1Cc2ccccc2-c2c(C3CCCCC3)c3ccc(C(=O)O)cc3n2C1 (stereo not shown)
- EC50 (HCV replicon): 100 to 1000 nM
- IC50 [1]: 100 to 1000 nM

Compound: O=C(O)c1ccc2c(C3CCCCC3)c3n(c2c1)CC(C(=O)NCCO)Cc1ccccc1-3 (stereo not shown)
- EC50 (HCV replicon): 100 to 1000 nM
- IC50 [1]: 100 to 1000 nM

Compound: CN(C)CCNC(=O)C1Cc2ccccc2-c2c(C3CCCCC3)c3ccc(C(=O)O)cc3n2C1 (stereo not shown)
- EC50 (HCV replicon): 100 to 1000 nM
- IC50 [1]: 100 to 1000 nM

Compound: CN(C)CCNC(=O)C1Cc2ccccc2-c2c(C3CCCCC3)c3ccc(C(=O)NS(=O)(=O)N(C)C)cc3n2C1 (stereo not shown)
- EC50 (HCV replicon): 100 to 1000 nM
- IC50 [1]: 100 to 1000 nM

Compound: CN1CCN(C(=O)C2Cc3ccccc3-c3c(C4CCCCC4)c4ccc(C(=O)O)cc4n3C2)CC1 (stereo not shown)
- EC50 (HCV replicon): 100 to 1000 nM
- IC50 [1]: 100 to 1000 nM

Compound: O=C(O)c1ccc2c(C3CCCCC3)c3n(c2c1)CC(C(=O)N1CCC(N2CCCC2)CC1)Cc1ccccc1-3 (stereo not shown)
- EC50 (HCV replicon): 100 to 1000 nM
- IC50 [1]: 100 to 1000 nM

Compound: COC(=O)c1ccc2c(C3CCCCC3)c3n(c2c1)CCCc1ccccc1-3 [Example 2, Methyl 13-cyclohexyl-6,7-dihydro-5H-indolo[2,1-a][2]benzazepine-10-carboxylate]
- EC50 (HCV replicon): > 10000 nM
- IC50 [1]: > 1000 nM

Compound: O=C(O)c1ccc2c(C3CCCCC3)c3n(c2c1)CCCc1ccccc1-3 [Example 3, 13-cyclohexyl-6,7-dihydro-5H-indolo[2,1-a][2]benzazepine-10-carboxylic acid]
- EC50 (HCV replicon): 100 to 1000 nM
- IC50 [1]: 100 to 1000 nM

Compound: COC(=O)c1ccc2c(C3CCCCC3)c3n(c2c1)Cc1ccccc1-3 [Example 6, Methyl 11-cyclohexyl-6H-isoindolo[2,1-a]indole-3-carboxylate]
- EC50 (HCV replicon): > 10000 nM
- IC50 [1]: > 1000 nM

Compound: O=C(O)c1ccc2c(C3CCCCC3)c3n(c2c1)Cc1ccccc1-3 [Example 7]
- EC50 (HCV replicon): > 10000 nM
- IC50 [1]: 100 to 1000 nM

Compound: COC(=O)c1ccc2c(C3CCCCC3)c3n(c2c1)C(O)c1ccccc1-3 (stereo not shown) [Example 8]
- EC50 (HCV replicon): 1000 to 10000 nM
- IC50 [1]: > 1000 nM

Compound: COC(=O)c1ccc2c(C3CCCCC3)c3n(c2c1)CC(=O)Nc1cccnc1-3 [Example 14, Methyl 13-cyclohexyl-6,7-dihydro-6-oxo-5H-pyrido[3′,2′:5,6][1,4]diazepino[1,7-a]indole-10-carboxylate]
- EC50 (HCV replicon): > 10000 nM
- IC50 [1]: > 1000 nM

Compound: O=C1Cn2c(c(C3CCCCC3)c3ccc(C(=O)O)cc32)-c2ncccc2N1 [Example 15, 13-cyclohexyl-6,7-dihydro-6-oxo-5H-pyrido[3′,2′:5,6][1,4]diazepino[1,7-a]indole-10-carboxylic acid]
- EC50 (HCV replicon): 1000 to 10000 nM
- IC50 [1]: 100 to 1000 nM

Compound: CCOC(=O)c1cc2ccccc2c2c(C3CCCCC3)c3ccc(C(=O)OC)cc3n12 [Example 16, 6-ethyl-9-methyl-12-cyclohexyl-indolo[2,1-a]isoquinoline-6,9-dicarboxylic acid]
- EC50 (HCV replicon): > 10000 nM
- IC50 [1]: > 1000 nM

Compound: O=C(O)c1ccc2c(C3CCCCC3)c3n(c2c1)CC=Cc1ccccc1-3 [Example 18, 13-cyclohexyl-7H-indolo[2,1-a][2]benzazepine-10-carboxylic acid]
- EC50 (HCV replicon): 1000 to 10000 nM
- IC50 [1]: > 1000 nM

Compound: CN(C)S(=O)(=O)NC(=O)c1ccc2c(C3CCCCC3)c3n(c2c1)CC=Cc1ccccc1-3 [Example 19, 13-cyclohexyl-N-(dimethylaminosulfonyl)-7H-indolo[2,1-a][2]benzazepine-10-carboxamide]
- EC50 (HCV replicon): 100 to 1000 nM
- IC50 [1]: 100 to 1000 nM

Compound: COC(=O)c1ccc2c(C3CCCCC3)c3n(c2c1)CC(=O)Nc1ccccc1-3 [Example 20, Methyl 13-cyclohexyl-6,7-dihydro-6-oxo-5H-indolo[1,2-d][1,4]benzodiazepine-10-carboxylate]
- EC50 (HCV replicon): 1000 to 10000 nM
- IC50 [1]: > 1000 nM

Compound: O=C1Cn2c(c(C3CCCCC3)c3ccc(C(=O)O)cc32)-c2ccccc2N1 [Example 21, 13-cyclohexyl-6,7-dihydro-6-oxo-5H-indolo[1,2-d][1,4]benzodiazepine-10-carboxylic acid]
- EC50 (HCV replicon): 100 to 1000 nM
- IC50 [1]: 100 to 1000 nM

Compound: CN1C(=O)Cn2c(c(C3CCCCC3)c3ccc(C(=O)O)cc32)-c2ccccc21 [Example 22, 13-cyclohexyl-6,7-dihydro-6-oxo-5-methyl-5H-indolo[1,2-d][1,4]benzodiazepine-10-carboxylic acid]
- EC50 (HCV replicon): 100 to 1000 nM
- IC50 [1]: 100 to 1000 nM

Compound: O=C(O)CCCc1nc(C2(NC(=O)c3ccc4c(C5CCCCC5)c5n(c4c3)CC=Cc3ccccc3-5)CCCC2)no1 [Example 23, 3-[1-[[(13-cyclohexyl-7H-indolo[2,1-a][2]benzazepin-10-yl)carbonyl]amino]cyclopentyl]-1,2,4-oxadiazole-5-butanoic acid]
- EC50 (HCV replicon): 100 to 1000 nM
- IC50 [1]: > 1000 nM

Compound: O=C(O)c1ccc(-c2nc(C3(NC(=O)c4ccc5c(C6CCCCC6)c6n(c5c4)CC=Cc4ccccc4-6)CCCC3)no2)cc1 [Example 24]
- EC50 (HCV replicon): 100 to 1000 nM
- IC50 [1]: > 1000 nM

Compound: O=C(O)/C=C/c1ccc(-c2nc(C3(NC(=O)c4ccc5c(C6CCCCC6)c6n(c5c4)CC=Cc4ccccc4-6)CCCC3)no2)cc1 [Example 25]
- EC50 (HCV replicon): 100 to 1000 nM
- IC50 [1]: > 1000 nM

Compound: O=C(O)/C=C/c1cccc(-c2nc(C3(NC(=O)c4ccc5c(C6CCCCC6)c6n(c5c4)CC=Cc4ccccc4-6)CCCC3)no2)c1 [Example 26]
- EC50 (HCV replicon): 100 to 1000 nM
- IC50 [1]: > 1000 nM

Compound: O=C(O)/C=C/c1ccc(NC(=O)C2(NC(=O)c3ccc4c(C5CCCCC5)c5n(c4c3)CCCc3ccccc3-5)CCNCC2)cc1 [Example 29, 2-propenoic acid, 3-[4-[[[4-[[(13-cyclohexyl-6,7-dihydro-5H-indolo[2,1-a][2]benzazepin-10-yl)carbonyl]amino]-4-piperidinyl]carbonyl]amino]phenyl]-, (2E)-]
- EC50 (HCV replicon): < 100 nM
- IC50 [1]: 100 to 1000 nM
